Experimental data taken from article PMC3961306, “Comparison of the Cancer Gene Targeting and Biochemical Selectivities of All Targeted Kinase Inhibitors Approved for Clinical Use” (PLoS ONE, 2014).

Legend:
Test in all cases: Kinase profiling in a biochemical assay panel (mobility shift assays and ELISA), %-inhibition at 1 μM; selectivity entropy
[1] = molecular target: T1, panel of more than 300 wild-type and mutant kinases (313 kinase panel) (Homo sapiens, UniProt O15530); details: kinase PDK1; 1 μM
T1 sequence (O15530 1-556): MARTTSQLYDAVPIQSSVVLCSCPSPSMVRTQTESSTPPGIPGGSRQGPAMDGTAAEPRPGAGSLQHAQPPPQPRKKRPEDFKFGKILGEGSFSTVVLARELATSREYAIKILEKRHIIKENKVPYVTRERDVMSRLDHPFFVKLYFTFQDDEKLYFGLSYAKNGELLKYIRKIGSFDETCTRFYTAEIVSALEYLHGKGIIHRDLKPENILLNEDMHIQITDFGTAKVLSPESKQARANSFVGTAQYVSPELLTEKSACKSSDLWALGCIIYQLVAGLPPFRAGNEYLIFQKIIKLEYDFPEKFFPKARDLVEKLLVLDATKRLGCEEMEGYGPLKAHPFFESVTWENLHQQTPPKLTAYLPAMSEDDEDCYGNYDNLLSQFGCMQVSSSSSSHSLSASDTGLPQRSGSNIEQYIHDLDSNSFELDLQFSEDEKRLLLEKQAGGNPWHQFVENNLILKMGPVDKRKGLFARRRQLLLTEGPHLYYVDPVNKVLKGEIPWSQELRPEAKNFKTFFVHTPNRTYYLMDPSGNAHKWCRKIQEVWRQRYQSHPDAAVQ

[2] = molecular target: panel of more than 300 wild-type and mutant kinases (313 kinase panel) (Homo sapiens, UniProt O94804); details: kinase LOK; compound at 1 μM
[3] = molecular target: panel of more than 300 wild-type and mutant kinases (313 kinase panel) (Homo sapiens, UniProt O96013); details: kinase PAK4; 1 μM
[4] = molecular target: T2, panel of more than 300 wild-type and mutant kinases (313 kinase panel) (Homo sapiens, UniProt P00540); details: kinase MOS; 1 μM
T2 sequence (P00540 1-346): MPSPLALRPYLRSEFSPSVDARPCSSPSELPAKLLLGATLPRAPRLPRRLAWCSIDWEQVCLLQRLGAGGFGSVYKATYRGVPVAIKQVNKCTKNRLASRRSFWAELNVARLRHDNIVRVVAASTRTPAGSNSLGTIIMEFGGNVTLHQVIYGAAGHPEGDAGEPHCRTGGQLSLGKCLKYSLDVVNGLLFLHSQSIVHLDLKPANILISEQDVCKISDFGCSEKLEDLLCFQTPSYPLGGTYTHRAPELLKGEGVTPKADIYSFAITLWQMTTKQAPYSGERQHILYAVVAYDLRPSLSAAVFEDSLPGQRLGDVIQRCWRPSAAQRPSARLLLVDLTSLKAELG

[5] = molecular target: T3, panel of more than 300 wild-type and mutant kinases (313 kinase panel) (Homo sapiens, UniProt P15735); details: kinase PHKG2; 1 μM
T3 sequence (P15735 1-406): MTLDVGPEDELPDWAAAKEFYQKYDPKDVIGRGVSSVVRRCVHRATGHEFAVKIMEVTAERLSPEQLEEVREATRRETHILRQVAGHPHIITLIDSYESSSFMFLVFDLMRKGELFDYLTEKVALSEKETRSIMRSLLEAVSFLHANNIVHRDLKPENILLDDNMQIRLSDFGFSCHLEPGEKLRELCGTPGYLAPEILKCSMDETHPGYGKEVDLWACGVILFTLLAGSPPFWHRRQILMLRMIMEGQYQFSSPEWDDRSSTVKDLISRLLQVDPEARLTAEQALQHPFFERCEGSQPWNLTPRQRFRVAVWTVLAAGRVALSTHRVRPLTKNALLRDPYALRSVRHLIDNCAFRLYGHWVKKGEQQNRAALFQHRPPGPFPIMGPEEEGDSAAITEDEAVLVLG

[6] = molecular target: T4, panel of more than 300 wild-type and mutant kinases (313 kinase panel) (Homo sapiens, UniProt P53778); details: kinase p38γ; 1 μM
T4 sequence (P53778 1-367): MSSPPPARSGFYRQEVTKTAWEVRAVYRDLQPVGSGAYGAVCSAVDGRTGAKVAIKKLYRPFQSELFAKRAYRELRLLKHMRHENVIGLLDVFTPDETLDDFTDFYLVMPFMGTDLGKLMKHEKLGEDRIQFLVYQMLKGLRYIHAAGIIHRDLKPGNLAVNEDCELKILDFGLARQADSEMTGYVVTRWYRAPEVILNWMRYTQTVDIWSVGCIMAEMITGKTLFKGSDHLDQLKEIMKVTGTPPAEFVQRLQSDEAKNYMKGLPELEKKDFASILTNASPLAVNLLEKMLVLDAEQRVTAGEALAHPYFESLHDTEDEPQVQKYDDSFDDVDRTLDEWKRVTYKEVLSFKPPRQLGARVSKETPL

[7] = molecular target: panel of more than 300 wild-type and mutant kinases (313 kinase panel) (Homo sapiens, UniProt P54764); details: kinase EPHA4; compound at 1 μM
[8] = molecular target: panel of more than 300 wild-type and mutant kinases (313 kinase panel) (Homo sapiens, UniProt Q9HC98); details: kinase NEK6; 1 μM
[9] = molecular target: panel of more than 300 wild-type and mutant kinases (313 kinase panel) (Homo sapiens, UniProt Q9HCP0); details: kinase CK1γ1; 1 μM compound

Chain of panel of more than 300 wild-type and mutant kinases (313 kinase panel) (Homo sapiens, UniProt O94804) (O94804 whole entry, change not shown): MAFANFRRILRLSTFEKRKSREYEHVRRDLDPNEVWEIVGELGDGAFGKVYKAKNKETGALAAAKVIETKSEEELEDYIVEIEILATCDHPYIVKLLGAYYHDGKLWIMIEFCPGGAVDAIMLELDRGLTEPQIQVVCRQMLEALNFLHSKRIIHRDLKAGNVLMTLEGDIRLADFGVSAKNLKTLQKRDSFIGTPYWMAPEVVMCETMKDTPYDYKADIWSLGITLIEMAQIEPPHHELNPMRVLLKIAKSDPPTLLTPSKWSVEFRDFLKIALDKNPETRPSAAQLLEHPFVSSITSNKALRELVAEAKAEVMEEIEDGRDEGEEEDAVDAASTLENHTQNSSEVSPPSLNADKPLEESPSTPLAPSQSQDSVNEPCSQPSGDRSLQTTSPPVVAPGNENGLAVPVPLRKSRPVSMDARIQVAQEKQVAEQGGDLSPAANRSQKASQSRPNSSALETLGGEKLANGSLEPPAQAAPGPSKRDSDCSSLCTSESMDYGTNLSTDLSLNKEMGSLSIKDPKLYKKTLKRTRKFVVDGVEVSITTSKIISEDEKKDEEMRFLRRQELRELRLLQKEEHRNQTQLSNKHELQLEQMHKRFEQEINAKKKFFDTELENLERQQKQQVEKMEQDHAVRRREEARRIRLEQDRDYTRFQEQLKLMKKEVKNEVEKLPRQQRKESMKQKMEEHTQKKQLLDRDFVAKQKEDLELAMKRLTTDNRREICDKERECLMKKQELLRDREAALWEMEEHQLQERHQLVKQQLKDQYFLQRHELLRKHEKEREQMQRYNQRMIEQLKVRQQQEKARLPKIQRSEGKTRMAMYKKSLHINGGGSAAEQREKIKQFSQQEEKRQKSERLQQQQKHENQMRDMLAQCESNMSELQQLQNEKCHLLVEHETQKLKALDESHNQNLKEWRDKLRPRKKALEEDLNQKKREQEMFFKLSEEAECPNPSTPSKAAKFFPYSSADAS
Chain of panel of more than 300 wild-type and mutant kinases (313 kinase panel) (Homo sapiens, UniProt P54764) (P54764 20-986, change not shown): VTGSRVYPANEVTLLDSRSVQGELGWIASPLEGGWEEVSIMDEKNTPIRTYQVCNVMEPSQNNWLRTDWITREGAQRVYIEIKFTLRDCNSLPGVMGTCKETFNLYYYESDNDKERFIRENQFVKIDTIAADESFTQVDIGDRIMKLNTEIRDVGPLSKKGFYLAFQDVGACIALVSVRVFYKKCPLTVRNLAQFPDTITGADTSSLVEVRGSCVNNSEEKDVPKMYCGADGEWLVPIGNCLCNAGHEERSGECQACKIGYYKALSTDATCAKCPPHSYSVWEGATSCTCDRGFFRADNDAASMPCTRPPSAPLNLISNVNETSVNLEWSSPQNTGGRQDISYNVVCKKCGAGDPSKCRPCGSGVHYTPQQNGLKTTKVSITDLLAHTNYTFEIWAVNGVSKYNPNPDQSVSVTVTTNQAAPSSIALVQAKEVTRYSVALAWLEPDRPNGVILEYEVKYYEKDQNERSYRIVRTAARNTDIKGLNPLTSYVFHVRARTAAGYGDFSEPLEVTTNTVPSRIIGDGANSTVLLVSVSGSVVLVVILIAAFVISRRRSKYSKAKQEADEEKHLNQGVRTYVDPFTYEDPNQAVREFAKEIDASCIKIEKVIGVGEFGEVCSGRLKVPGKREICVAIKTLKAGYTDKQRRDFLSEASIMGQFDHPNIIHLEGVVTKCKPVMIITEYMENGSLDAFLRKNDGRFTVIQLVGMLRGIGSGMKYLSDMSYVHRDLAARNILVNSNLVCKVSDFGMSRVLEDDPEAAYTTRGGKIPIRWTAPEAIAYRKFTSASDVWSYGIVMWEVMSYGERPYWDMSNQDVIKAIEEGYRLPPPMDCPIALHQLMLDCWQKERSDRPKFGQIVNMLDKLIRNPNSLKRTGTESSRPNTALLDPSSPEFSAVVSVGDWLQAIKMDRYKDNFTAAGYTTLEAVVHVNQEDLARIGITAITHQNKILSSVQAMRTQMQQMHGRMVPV

| SMILES | %-inhibition of PDK1 [1] [%] | %-inhibition of LOK [2] [%] | %-inhibition of PAK4 [3] [%] | %-inhibition of MOS [4] [%] | %-inhibition of PHKG2 [5] [%] | %-inhibition of p38γ [6] [%] | %-inhibition of EPHA4 [7] [%] | %-inhibition of NEK6 [8] [%] | %-inhibition, CK1γ1 [9] [%] |
| --- | --- | --- | --- | --- | --- | --- | --- | --- | --- |
| Cc1ccc(Nc2nccc(N(C)c3ccc4c(C)n(C)nc4c3)n2)cc1S(N)(=O)=O [pazopanib] | -0.284 | 70 | 1.68 | -12 | 1 | -5 | 22 | -3 | -3 |
| CNC(=O)c1cc(Oc2ccc(NC(=O)Nc3ccc(Cl)c(C(F)(F)F)c3)c(F)c2)ccn1 [regorafenib] | -3 | 80 | -15 | 0.399 | -8 | 16 | 92 | -6.48 | -8 |
| N#CC[C@H](C1CCCC1)n1cc(-c2ncnc3[nH]ccc23)cn1 [ruxolitinib] | -3.16 | 3.51 | 0.371 | 8 | 18 | -2.39 | 12 | -6 | -4 |
| CO[C@H]1C[C@@H]2CC[C@@H](C)[C@@](O)(O2)C(=O)C(=O)N2CCCC[C@H]2C(=O)O[C@H]([C@H](C)C[C@@H]2CC[C@@H](OC(=O)C(C)(CO)CO)[C@H](OC)C2)CC(=O)[C@H](C)/C=C(\C)[C@@H](O)[C@@H](OC)C(=O)[C@H](C)C[C@H](C)/C=C/C=C/C=C/1C [temsirolimus] | -8 | -5 | -19 | -1.43 | -7 | -5.48 | -4.51 | -3.31 | -4.47 |
| CC(=O)Nc1cccc(-n2c(=O)n(C3CC3)c(=O)c3c(Nc4ccc(I)cc4F)n(C)c(=O)c(C)c32)c1 [trametinib] | -5.52 | 12 | -0.675 | 42 | 2.81 | 0.684 | -5.3 | -0.324 | 0.211 |
| CCCS(=O)(=O)Nc1ccc(F)c(C(=O)c2c[nH]c3ncc(-c4ccc(Cl)cc4)cc23)c1F [vemurafenib] | -4 | -1 | -7 | 10 | -4.37 | -0.299 | -2 | -1.43 | -2 |
